Data published in PubChem BioAssay (NCI).
“And” between values parts separate entries of the source, which are not always exact repeats. Equal values may be shown once.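 Each compound was tested at five concentrations against cells in 96-well plates for 48 hours. The concentration for 50% growth inhibition is given as GI50. Definition used: TGI = concentration required for complete inhibition of growth.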

Key:
Assay in all cases: DTP human tumour cell line panel, 48 h
[1] = system: HCC-2998 colon
[2] = system: HL-60(TB) leukemia
[3] = system: HT29 colon
[4] = system: MALME-3M melanoma
[5] = system: MDA-MB-231 breast
[6] = system: OVCAR-4 ovarian
[7] = system: RPMI-8226 leukemia
[8] = system: SF-539 CNS
[9] = system: SR leukemia
[10] = system: MOLT-4 leukemia

Row | Structure (SMILES) | GI50 [1] | TGI [1] | GI50 [2] | TGI [2] | GI50 [3] | TGI [3] | GI50 [4] | TGI [4] | GI50 [5] | TGI [5] | GI50 [6] | TGI [6] | GI50 [7] | TGI [7] | GI50 [8] | TGI [8] | GI50 [9] | TGI [9] | GI50 [10] | TGI [10]
1 | CCCCCCN1C(=O)CN=C1Nc1ccc2cc3ccc(NC4=NCC(=O)N4CCCCCC)cc3nc2c1 | 1580 nM | 3.04 µM | 1.96 µM | 4.16 µM | 1.81 µM | 4.2 µM | 1710 nM | 3.59 µM | 1.94 µM | 3.87 µM | 1.66 µM | 4.01 µM | 2070 nM | 5.52 µM | 1810 nM | 3.63 µM | 1530 nM | 4.22 µM | – | –
2 | CCCCCCCCCCCCCCCCCC1=NC(C)(C)CN1CCO | 1710 nM | 3.11 µM | 1.81 µM | 4.11 µM | 1.37 µM | 2.66 µM | 2180 nM | 5.6 µM | 1.77 µM | 3.41 µM | 3.12 µM | 9.8 µM | – | – | 1750 nM | 3.15 µM | 1500 nM | 4.02 µM | 1960 nM | 4.73 µM
3 | CCCOc1c2cc(COC3OC(CO)C(O)C(O)C3O)cc1Cc1cc(COC3OC(CO)C(O)C(O)C3O)cc(c1OCCC)Cc1cc(COC3OC(CO)C(O)C(O)C3O)cc(c1OCCC)Cc1cc(COC3OC(CO)C(O)C(O)C3O)cc(c1OCCC)C2 (stereo not drawn) | – | > 100 µM | 27.8 µM and 78 µM and 7.86 µM | 77.7 µM and > 100 µM and 21.6 µM | > 100 µM and 89.8 µM and 32.6 µM | > 100 µM | – | > 100 µM | 45.2 µM and > 100 µM and 17 µM | > 100 µM and 34.1 µM | – | > 100 µM and 76.6 µM | – | > 100 µM | > 100000 nM and 25000 nM | > 100 µM and 79.8 µM | 29900 nM and 13800 nM | 48.9 µM and 29.5 µM | – | 29 µM
4 | N#CC1(C#N)C2C=CC(C3CCC=C32)C1(C#N)C#N (stereo not drawn) | – | > 10 µM | – | 3.81 µM | – | > 10 µM | – | 5.5 µM | – | > 10 µM | – | > 10 µM | – | 8.79 µM | – | > 10 µM | – | > 10 µM | – | 6.52 µM
5 | Cc1nc(C(N)=S)sc1C(=O)CC(=O)C(=O)Nc1cccc(Cl)c1C | – | > 100 µM | – | > 100 µM | – | > 100 µM | – | > 100 µM | – | > 100 µM | – | > 100 µM | – | > 100 µM | – | > 100 µM | – | > 100 µM | – | > 100 µM
6 | Cc1cc(N)c2ccccc2[n+]1CCCCCCCCCC[n+]1c(C)cc(N)c2ccccc21 | 253 nM | 4.52 µM and 2.76 µM and 9.8 µM | 0.142 µM | 0.545 µM and 2.14 µM | 0.223 µM and 1.55 µM | 1.51 µM and 5.47 µM and 4.62 µM | 163 nM and 1350 nM | – | 0.505 µM | > 11.5 µM and 12.7 µM | – | – | 43.5 nM and 324 nM | 0.859 µM and 2.61 µM and 2.71 µM | 241 nM and 1560 nM | 1.44 µM and 9.96 µM and 3.8 µM | 151 nM and 1070 nM | 0.656 µM and 3.95 µM and 4.37 µM | 549 nM and 1410 nM | 1.38 µM and 3.23 µM and 4.08 µM
7 | CCOC(=O)Cc1csc(NC(=O)C(OC(=O)c2ccc(N)cc2)c2ccccc2)n1 (stereo not drawn) | 60000 nM | > 100 µM | 18.4 µM | 92.5 µM | 39.9 µM | > 100 µM | 44200 nM | > 100 µM | 31.6 µM | 97.1 µM | 32.7 µM | > 100 µM | 63900 nM | > 100 µM | 30600 nM | 87.4 µM | 21200 nM | > 100 µM | 24800 nM | > 100 µM
8 | CCNC(=O)Oc1ccc(/C(=C(\C)c2ccc(Cl)cc2)c2ccc(OCCN3CCCCC3)cc2)cc1 | 3530 nM | 13.4 µM | 1.99 µM | 4.47 µM | 3.16 µM | 10.9 µM | 1780 nM | 3.9 µM | 3.55 µM | 11.5 µM | 2.99 µM | 12.9 µM | 2310 nM | 5.27 µM | 1810 nM | 3.59 µM | 2980 nM | 9.23 µM | 3270 nM | 10.6 µM
